According to US20210009549A1, “CANNABINOID DERIVATIVES AND CONJUGATES AND USES THEREOF” ([…] LTD., priority 2018, published 2021):

How the values were obtained:
human α1 GlyR = target: T1, human α1 GlyR (Homo sapiens, UniProt P23415); assay: Whole-cell patch clamp, modulation of α1 GlyR-regulated ion channel currents; type: cell-based; details: HEK293 cells stably expressing human α1 GlyR; EC2 glycine (1 μM); holding potential −40 mV; room temperature
T1 construct: expressed in transfected cells
T1 sequence (P23415 29-457): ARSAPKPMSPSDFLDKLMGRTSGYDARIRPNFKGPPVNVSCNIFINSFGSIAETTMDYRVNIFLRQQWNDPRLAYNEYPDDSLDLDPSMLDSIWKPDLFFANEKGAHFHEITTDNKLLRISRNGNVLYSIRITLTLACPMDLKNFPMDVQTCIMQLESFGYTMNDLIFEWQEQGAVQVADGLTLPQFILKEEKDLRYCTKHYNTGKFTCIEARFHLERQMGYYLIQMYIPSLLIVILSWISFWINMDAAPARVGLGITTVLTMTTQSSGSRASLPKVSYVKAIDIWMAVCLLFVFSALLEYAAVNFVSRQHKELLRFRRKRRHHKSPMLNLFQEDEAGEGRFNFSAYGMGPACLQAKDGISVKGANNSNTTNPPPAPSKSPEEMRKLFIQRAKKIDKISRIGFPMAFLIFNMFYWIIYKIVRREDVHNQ
Experimental: (§1) Currents were recorded by whole-cell patch clamp on HEK293 cells that stably expressed either the human α1 or α3 GlyRs. Cells were cultured on glass coverslips and placed into the recording chamber which was perfused by the standard extracellular solution containing (in mM): 140 NaCl, 5 KCl, 2 CaCl2), 1 MgCl2, 10 HEPES/NaOH and 10 glucose (pH 7.4 adjusted with NaOH). For HEK293 cell recordings we employed an intracellular solution consisting of (mM): 145 CsCl, 2 CaCl2), 2 MgCl2, 10 HEPES and 10 EGTA (pH 7.4 adjusted with CsOH; osmolarity 290 mOsm). HEK293 cell recordings were performed at a holding potential of −40 mV. Solutions were applied to cells via gravity induced perfusion via parallel microtubules under micromanipulator control with a solution exchange time of <250 ms. Experiments were conducted at room temperature (20-22° C.). Due to the irreversible nature of the drug actions, only one cell was tested per coverslip.
(§2) Patch pipettes were fabricated from borosilicate hematocrit tubing (Hirschmann Laborgerate, Eberstadt, Germany) and heat polished. Pipettes had tip resistances of […]. Membrane currents were recorded using an Axopatch 200B amplifier and a Digidata 1440 analog-to-digital converter under control of pClamp10 software (Molecular Devices). Currents were filtered at 500 Hz and digitized at 2 KHz.
(§3) After a stable whole cell recording was obtained, EC2 and saturating glycine concentrations activated currents with the anticipated magnitudes were verified. At al and α3 GlyRs, EC2 current magnitudes generally required glycine concentrations of 1 and 80 μM, respectively. The saturating concentration was invariably 2 mM. The standard experimental protocol involved EC2 glycine application for […] every 1 minute. When glycine was not being applied, the cells were continually and directly exposed to flowing drug solution. After 5 minutes of alternate applications of drug and EC2 glycine, 2 mM glycine was briefly applied every 2 minutes. Regular applications of saturating glycine after the 5 minute time point tended to enhance the drug-induced current magnitude effect further.
(§4) The effects of cannabinoid derivatives on al GlyR and α3 GlyR-regulated ion channel currents, as assessed by the patch clamp method, are indicated in Table 6.

[1] = rodents; systemic and intrathecal administration; cited from earlier work
human α3 GlyR = target: T2, human α3 GlyR (Homo sapiens, UniProt O75311); assay: Whole-cell patch clamp, modulation of α3 GlyR-regulated ion channel currents; type: cell-based; details: for A3 GlyR (fold increase): HEK293 cells stably expressing human α3 GlyR, EC2 glycine (80 μM), holding potential −40 mV, room temperature
T2 construct: expressed in transfected cells
T2 sequence (O75311 34-464): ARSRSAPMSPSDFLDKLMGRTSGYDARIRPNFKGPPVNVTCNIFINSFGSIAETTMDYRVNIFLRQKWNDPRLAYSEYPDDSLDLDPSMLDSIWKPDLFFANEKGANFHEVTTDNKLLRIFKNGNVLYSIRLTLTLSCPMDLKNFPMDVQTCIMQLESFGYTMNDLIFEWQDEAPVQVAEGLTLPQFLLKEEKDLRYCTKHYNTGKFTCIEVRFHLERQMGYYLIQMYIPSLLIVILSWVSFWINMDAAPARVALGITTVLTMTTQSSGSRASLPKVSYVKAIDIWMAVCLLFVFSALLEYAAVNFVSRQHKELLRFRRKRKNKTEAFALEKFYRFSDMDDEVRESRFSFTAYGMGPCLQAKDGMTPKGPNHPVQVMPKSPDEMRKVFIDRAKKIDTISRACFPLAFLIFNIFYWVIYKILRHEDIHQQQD
Experimental: as §1, §2, §3, §4

hippocampal neurons = details: cited from earlier work
presynaptic GlyR = details: brainstem and spinal cord of hyperekplexic mutant mice; cited from earlier work

Compound	α1 GlyR (fold increase) (human α1 GlyR)	A3 GlyR (fold increase) (human α3 GlyR) [fold]	other results
7-OH-Desoxy-CBD [Compound 119]	no effect		
C=C(C)[C@@H]1CCC(C)=C[C@H]1c1c(O)cc(CCCCC)cc1O [CBD, cannabidiol]			Analgesic tolerance [1]: without causing apparent analgesic tolerance; Suppression of chronic inflammatory and neuropathic pain [1]: significantly suppresses chronic inflammatory and neuropathic pain
C=C(C)C1CCC(C)=CC1c1ccc(C(C)(C)CCCCCC)cc1O (stereo not drawn) [Compound 101, 1,1-dimethylheptyl desoxy CBD]	13 fold	5	
C=C(C)C1CCC(C)=CC1c1ccc(C(C)C(C)CCCCC)cc1O (stereo not drawn) [Compound 102, 1,2-dimethylheptyl-desoxy CBD]	no effect	18	Selectivity α3 GlyR versus α1 GlyR (human α3 GlyR; comparison of patch clamp effects on α1 and α3 GlyR): highly selective towards α3 GlyR
C=C(C)C1CCC(C)=CC1c1ccc(C(C)(C)CCC)cc1O (stereo not drawn) [Compound 103, 1,1-dimethylbutyl desoxy CBD]	4 fold	10	
CCCCCCC(C)(C)c1ccc2c(c1)OC(C)(C)C1CCC(C)=CC21 (stereo not drawn) [Compound 148, 1,1-DMH-desoxy THC]	4.2 fold	4	
C=C(C)[C@@H]1CCC(C)=C[C@H]1c1c(O)cc(CC2CN(C(C)=O)C2)cc1O [KLS-13019]			Potency relative to CBD (hippocampal neurons; more potent than CBD): 50 fold; Safety relative to CBD (hippocampal neurons; safer than CBD): > 400 fold
C=C(C)[C@@H]1CCC(C)=C[C@H]1c1ccc(CCCCC)cc1O [desoxy-CBD, dehydroxylcannabidiol]	26.7 fold	4.6	Rescue of impaired presynaptic GlyR activity and diminished glycine release (presynaptic GlyR): selectively rescues impaired presynaptic GlyR activity and diminished glycine release; Analgesic tolerance [1]: without causing apparent analgesic tolerance; Suppression of chronic inflammatory and neuropathic pain [1]: significantly suppresses chronic inflammatory and neuropathic pain
CCCCCc1ccc2c(c1)OC(C)(C)C1CCC(C)=CC21 (stereo not drawn) [desoxy-THC]	11.2 fold	4.7	
